Results: patent US12398160B2, “Cot modulators and methods of use thereof” (Gilead Sciences, Inc., priority 2019, dated 2025)

Assay: In vivo dog pharmacokinetics
Settings: for AUC0-72 h: beagle dogs N=3
[1] = plasma level of the labelled analyte after oral dose of Compound B (9.7 mg-eq/kg), powder in capsule

Compound: Cn1ccc2c([C@H](Nc3cc(Cl)c4ncc(C#N)c(NCC(C)(C)C)c4c3)c3cn(C45CC(C4)C5)nn3)cccc2c1=O [Compound A]
- AUC0-72 h for Compound A in plasma, dosing with Compound B compared with equivalent dose of Compound A (beagle dogs, powder in capsule, after dosing with Compound B versus Compound A): higher

Compound: Cn1ccc2c([C@@H](c3cn(C45CC(C4)C5)nn3)N(C(=O)OCOP(=O)(O)O)c3cc(Cl)c4ncc(C#N)c(NCC(C)(C)C)c4c3)cccc2c1=O [Compound B]
- AUC0-72 h [1]: BLQ

Compound: Cn1ccc2c([C@@H](c3cn(C45CC(C4)C5)nn3)N(C(=O)OCCCOP(=O)(O)O)c3cc(Cl)c4ncc(C#N)c(NCC(C)(C)C)c4c3)cccc2c1=O [Compound C]
- In vivo conversion after dosing (beagle dogs, Compound C solution formulation, 72 hour period): converted in vivo to both Compound D and Compound A in measurable amounts
- AUC0-72 h (plasma level of the labelled analyte after oral dose of Compound C (3 mg-eq/kg), 3 mg/mL solution): BLQ

Compound: Cn1ccc2c([C@@H](c3cn(C45CC(C4)C5)nn3)N(C(=O)OCO)c3cc(Cl)c4ncc(C#N)c(NCC(C)(C)C)c4c3)cccc2c1=O [Intermediate A]
- AUC0-72 h [1]: BLQ
